The record followed here is publication PMC5933747 (PLoS ONE, 2018).

SMILES strings stand for the structures.

What all share (type): cell-based
One assay deals with human NaV1.7 (Homo sapiens, UniProt Q15858). The experiment in a line: IonWorks Quattro (IWQ) electrophysiology, human NaV1.7. Particulars: read-out: Glu mutant IWQ IC50 NaV1.7.
A further assay concerns the target human NaV1.4 (Homo sapiens, UniProt P35499). The experiment in a line: IonWorks Quattro (IWQ) electrophysiology, human NaV1.4. The settings on record: read-out: Glu mutant IWQ IC50 NaV1.4.
For another assay, the target named is human NaV1.5 (Homo sapiens, UniProt Q14524). The assay is described as follows: IonWorks Quattro (IWQ) electrophysiology, human NaV1.5. The settings on record: read-out: Glu mutant IWQ IC50 NaV1.5.

Chain of human NaV1.4 (P35499 whole entry): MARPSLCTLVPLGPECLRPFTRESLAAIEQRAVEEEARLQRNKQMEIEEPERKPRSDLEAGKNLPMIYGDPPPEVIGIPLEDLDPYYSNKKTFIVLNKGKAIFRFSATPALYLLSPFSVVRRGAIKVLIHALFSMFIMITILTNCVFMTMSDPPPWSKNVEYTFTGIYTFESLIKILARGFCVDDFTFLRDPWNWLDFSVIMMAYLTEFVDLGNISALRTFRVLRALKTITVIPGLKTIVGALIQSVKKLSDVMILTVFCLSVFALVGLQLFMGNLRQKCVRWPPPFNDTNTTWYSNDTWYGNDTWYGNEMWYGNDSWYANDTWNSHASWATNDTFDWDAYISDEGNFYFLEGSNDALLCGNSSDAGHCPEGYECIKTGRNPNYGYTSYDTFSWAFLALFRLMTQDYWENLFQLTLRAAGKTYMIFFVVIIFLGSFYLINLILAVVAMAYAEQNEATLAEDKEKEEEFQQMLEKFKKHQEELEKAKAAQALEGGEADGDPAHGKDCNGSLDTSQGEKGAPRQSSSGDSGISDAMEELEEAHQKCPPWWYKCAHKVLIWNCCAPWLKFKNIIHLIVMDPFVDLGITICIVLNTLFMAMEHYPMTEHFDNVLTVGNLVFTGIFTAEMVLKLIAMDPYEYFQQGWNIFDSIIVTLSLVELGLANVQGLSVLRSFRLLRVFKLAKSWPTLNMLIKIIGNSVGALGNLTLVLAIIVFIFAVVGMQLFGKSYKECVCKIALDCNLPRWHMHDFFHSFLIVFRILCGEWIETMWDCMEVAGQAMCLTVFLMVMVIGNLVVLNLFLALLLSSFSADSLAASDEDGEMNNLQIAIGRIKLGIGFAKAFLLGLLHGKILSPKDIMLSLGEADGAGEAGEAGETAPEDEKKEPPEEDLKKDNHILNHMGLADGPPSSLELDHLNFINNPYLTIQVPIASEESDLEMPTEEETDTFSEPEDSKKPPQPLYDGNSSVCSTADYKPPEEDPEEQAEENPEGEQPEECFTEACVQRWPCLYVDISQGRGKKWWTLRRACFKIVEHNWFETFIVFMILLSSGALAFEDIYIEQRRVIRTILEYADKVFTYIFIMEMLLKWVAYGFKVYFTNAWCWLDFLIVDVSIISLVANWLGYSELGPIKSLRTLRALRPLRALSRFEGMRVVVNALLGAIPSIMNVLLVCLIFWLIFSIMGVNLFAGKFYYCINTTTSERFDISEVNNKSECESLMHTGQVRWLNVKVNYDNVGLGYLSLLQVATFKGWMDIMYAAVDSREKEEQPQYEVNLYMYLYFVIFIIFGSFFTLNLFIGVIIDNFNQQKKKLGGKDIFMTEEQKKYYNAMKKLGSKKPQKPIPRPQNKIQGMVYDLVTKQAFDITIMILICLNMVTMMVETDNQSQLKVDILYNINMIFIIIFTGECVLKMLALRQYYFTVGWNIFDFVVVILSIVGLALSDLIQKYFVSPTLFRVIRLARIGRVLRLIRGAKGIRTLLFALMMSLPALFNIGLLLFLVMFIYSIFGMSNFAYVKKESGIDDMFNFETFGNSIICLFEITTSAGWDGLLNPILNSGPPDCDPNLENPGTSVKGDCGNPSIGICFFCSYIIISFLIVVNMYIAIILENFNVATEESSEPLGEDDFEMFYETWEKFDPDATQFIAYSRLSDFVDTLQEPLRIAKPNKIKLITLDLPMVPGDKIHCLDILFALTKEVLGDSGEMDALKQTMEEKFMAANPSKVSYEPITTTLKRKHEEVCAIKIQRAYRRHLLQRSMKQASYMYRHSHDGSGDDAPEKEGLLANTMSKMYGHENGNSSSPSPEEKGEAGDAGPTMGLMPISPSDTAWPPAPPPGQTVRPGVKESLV
Chain of human NaV1.7 (Q15858 whole entry): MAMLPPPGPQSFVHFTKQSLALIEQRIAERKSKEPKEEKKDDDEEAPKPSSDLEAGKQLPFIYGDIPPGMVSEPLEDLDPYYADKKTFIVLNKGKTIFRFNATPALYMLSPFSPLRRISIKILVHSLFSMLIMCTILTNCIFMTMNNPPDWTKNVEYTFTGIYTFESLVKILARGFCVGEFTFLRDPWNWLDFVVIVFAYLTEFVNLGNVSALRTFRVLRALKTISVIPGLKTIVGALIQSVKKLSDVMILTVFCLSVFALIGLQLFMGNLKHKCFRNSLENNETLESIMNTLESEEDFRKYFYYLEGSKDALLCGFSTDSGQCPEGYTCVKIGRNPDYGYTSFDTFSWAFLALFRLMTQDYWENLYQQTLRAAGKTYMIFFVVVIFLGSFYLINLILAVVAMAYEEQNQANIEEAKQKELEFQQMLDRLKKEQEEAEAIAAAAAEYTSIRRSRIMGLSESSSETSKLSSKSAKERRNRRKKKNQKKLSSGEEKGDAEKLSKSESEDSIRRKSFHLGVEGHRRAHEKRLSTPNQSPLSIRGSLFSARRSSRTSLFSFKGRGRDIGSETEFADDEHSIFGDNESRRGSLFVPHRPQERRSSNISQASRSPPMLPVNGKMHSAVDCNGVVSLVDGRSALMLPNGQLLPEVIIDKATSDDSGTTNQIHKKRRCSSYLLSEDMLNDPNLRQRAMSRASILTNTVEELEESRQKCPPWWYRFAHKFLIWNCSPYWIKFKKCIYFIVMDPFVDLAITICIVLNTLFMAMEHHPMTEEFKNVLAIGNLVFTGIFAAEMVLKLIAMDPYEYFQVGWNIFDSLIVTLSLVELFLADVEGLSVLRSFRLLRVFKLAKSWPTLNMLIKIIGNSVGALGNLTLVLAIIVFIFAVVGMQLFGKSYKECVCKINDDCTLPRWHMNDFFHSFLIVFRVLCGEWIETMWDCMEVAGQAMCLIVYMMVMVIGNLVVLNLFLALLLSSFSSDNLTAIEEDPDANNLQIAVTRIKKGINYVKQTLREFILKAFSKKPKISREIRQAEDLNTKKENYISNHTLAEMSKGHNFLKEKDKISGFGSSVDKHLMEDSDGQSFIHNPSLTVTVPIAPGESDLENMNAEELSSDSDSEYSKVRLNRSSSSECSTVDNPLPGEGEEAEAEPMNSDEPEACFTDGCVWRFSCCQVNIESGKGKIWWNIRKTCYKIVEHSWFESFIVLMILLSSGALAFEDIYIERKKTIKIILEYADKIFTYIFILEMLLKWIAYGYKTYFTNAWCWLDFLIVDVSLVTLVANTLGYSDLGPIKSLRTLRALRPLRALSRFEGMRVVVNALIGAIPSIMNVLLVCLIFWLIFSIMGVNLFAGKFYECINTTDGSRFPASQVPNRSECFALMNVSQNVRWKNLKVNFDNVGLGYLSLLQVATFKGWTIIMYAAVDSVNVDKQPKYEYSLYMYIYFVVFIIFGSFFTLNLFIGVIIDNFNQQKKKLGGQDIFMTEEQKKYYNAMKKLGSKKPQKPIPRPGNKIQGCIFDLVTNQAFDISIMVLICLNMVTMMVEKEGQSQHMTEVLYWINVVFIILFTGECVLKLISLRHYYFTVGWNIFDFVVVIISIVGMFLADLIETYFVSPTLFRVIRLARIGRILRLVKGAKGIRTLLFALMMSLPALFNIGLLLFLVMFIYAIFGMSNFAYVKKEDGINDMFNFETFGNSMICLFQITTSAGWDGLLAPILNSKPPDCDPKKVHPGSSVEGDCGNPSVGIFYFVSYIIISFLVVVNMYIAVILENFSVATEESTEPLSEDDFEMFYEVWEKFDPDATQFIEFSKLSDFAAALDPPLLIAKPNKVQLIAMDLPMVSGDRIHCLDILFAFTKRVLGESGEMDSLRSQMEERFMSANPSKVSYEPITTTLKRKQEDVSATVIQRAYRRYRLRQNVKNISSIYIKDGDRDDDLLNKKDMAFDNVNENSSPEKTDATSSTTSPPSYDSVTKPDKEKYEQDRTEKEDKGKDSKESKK

Turning to `CC[C@H](C)[C@H](NC(=O)[C@@H](NC(=O)[C@H](CCCCN)NC(=O)[C@H](CCCNC(=N)N)NC(=O)[C@@H]1CSSC[C@@H]2NC(=O)[C@H](C)NC(=O)[C@H](CCCNC(=N)N)NC(=O)[C@H](CCCCN)NC(=O)[C@H](CO)NC(=O)[C@H](CC(=O)O)NC(=O)[C@@H]3CSSC[C@H](NC(=O)[C@H](CCCNC(=N)N)NC(=O)[C@H](CC(C)C)NC(=O)[C@H](CCC(=O)O)NC(=O)[C@H](CCC(=O)O)NC(=O)[C@H](CSSC[C@H](NC(=O)[C@@H](N)Cc4ccc(O)cc4)C(=O)N[C@@H](CCC(N)=O)C(=O)N[C@@H](CCCCN)C(=O)N[C@@H](Cc4c[nH]c5ccccc45)C(=O)N[C@@H](CCSC)C(=O)N[C@@H](Cc4c[nH]c5ccccc45)C(=O)N[C@@H]([C@@H](C)O)C(=O)N3)NC2=O)C(=O)N[C@@H](CCCCN)C(=O)N[C@@H](CC(C)C)C(=O)N[C@@H](Cc2c[nH]c3ccccc23)C(=O)N1)[C@@H](C)CC)C(N)=O` [G18 Glu mutant], the IC50 is 165 nM at human NaV1.7, 1220 nM at human NaV1.4 and > 10000 nM at human NaV1.5.
For `CC[C@H](C)[C@H](NC(=O)[C@@H](NC(=O)[C@H](CCCCN)NC(=O)[C@H](CCCNC(=N)N)NC(=O)[C@@H]1CSSC[C@@H]2NC(=O)[C@H](C)NC(=O)[C@H](CCCNC(=N)N)NC(=O)[C@H](CCCCN)NC(=O)[C@H](CO)NC(=O)[C@H](CC(=O)O)NC(=O)[C@@H]3CSSC[C@H](NC(=O)[C@H](CCCNC(=N)N)NC(=O)[C@H](CC(C)C)NC(=O)CNC(=O)[C@H](CCC(=O)O)NC(=O)[C@H](CSSC[C@H](NC(=O)[C@@H](N)Cc4ccc(O)cc4)C(=O)N[C@@H](CCC(N)=O)C(=O)N[C@@H](CCCCN)C(=O)N[C@@H](Cc4c[nH]c5ccccc45)C(=O)N[C@@H](CCSC)C(=O)N[C@@H](Cc4c[nH]c5ccccc45)C(=O)N[C@@H]([C@@H](C)O)C(=O)N3)NC2=O)C(=O)N[C@@H](CCC(=O)O)C(=O)N[C@@H](CC(C)C)C(=O)N[C@@H](Cc2c[nH]c3ccccc23)C(=O)N1)[C@@H](C)CC)C(N)=O` [K22 Glu mutant], the results for the 50% inhibitory concentration (IC50) on human NaV1.7, on human NaV1.4 and at human NaV1.5 were 662 nM, > 10000 nM and > 10000 nM, respectively.
As for `CC[C@H](C)[C@H](NC(=O)[C@@H](NC(=O)[C@H](CCCCN)NC(=O)[C@H](CCCNC(=N)N)NC(=O)[C@@H]1CSSC[C@@H]2NC(=O)[C@H](C)NC(=O)[C@H](CCC(=O)O)NC(=O)[C@H](CCCCN)NC(=O)[C@H](CO)NC(=O)[C@H](CC(=O)O)NC(=O)[C@@H]3CSSC[C@H](NC(=O)[C@H](CCCNC(=N)N)NC(=O)[C@H](CC(C)C)NC(=O)CNC(=O)[C@H](CCC(=O)O)NC(=O)[C@H](CSSC[C@H](NC(=O)[C@@H](N)Cc4ccc(O)cc4)C(=O)N[C@@H](CCC(N)=O)C(=O)N[C@@H](CCCCN)C(=O)N[C@@H](Cc4c[nH]c5ccccc45)C(=O)N[C@@H](CCSC)C(=O)N[C@@H](Cc4c[nH]c5ccccc45)C(=O)N[C@@H]([C@@H](C)O)C(=O)N3)NC2=O)C(=O)N[C@@H](CCCCN)C(=O)N[C@@H](CC(C)C)C(=O)N[C@@H](Cc2c[nH]c3ccccc23)C(=O)N1)[C@@H](C)CC)C(N)=O` [R13 Glu mutant], the IC50 on human NaV1.7 is 4570 nM; at human NaV1.4, > 10000 nM; at human NaV1.5 it was > 10000 nM.
For the molecule `CC[C@H](C)[C@H](NC(=O)[C@@H](NC(=O)[C@H](CCCCN)NC(=O)[C@H](CCCNC(=N)N)NC(=O)[C@@H]1CSSC[C@@H]2NC(=O)[C@H](C)NC(=O)[C@H](CCCNC(=N)N)NC(=O)[C@H](CCCCN)NC(=O)[C@H](CO)NC(=O)[C@H](CC(=O)O)NC(=O)[C@@H]3CSSC[C@H](NC(=O)[C@H](CCCNC(=N)N)NC(=O)[C@H](CC(C)C)NC(=O)CNC(=O)[C@H](CCC(=O)O)NC(=O)[C@H](CSSC[C@H](NC(=O)[C@@H](N)Cc4ccc(O)cc4)C(=O)N[C@@H](CCC(=O)O)C(=O)N[C@@H](CCCCN)C(=O)N[C@@H](Cc4c[nH]c5ccccc45)C(=O)N[C@@H](CCSC)C(=O)N[C@@H](Cc4c[nH]c5ccccc45)C(=O)N[C@@H]([C@@H](C)O)C(=O)N3)NC2=O)C(=O)N[C@@H](CCCCN)C(=O)N[C@@H](CC(C)C)C(=O)N[C@@H](Cc2c[nH]c3ccccc23)C(=O)N1)[C@@H](C)CC)C(N)=O` [Q3 Glu mutant], the results for the IC50 at human NaV1.7, at human NaV1.4 and at human NaV1.5 were 333 nM, 1830 nM and > 10000 nM, respectively.
